pEC50: −log10 of the molar value. “Also recorded” adds a separate entry of the source.
Key:
[1] = test system: LS patient-derived skin fibroblasts; experiment: Mitochondrial ATP production capacity (extracellular flux analyzer, OCR); assay type: cell-based, human; conditions: 100 nM compound
Description: The extracellular flux analyzer Seahorse XFe96 (Agilent Technologies, Santa Clara, CA, USA) was used to evaluate the mitochondrial function. The extracellular flux analyzer measures the oxygen consumption rate (OCR) in the mitochondria during ATP synthesis and can also evaluate the intracellular mitochondrial function. The endpoints were the basal OCR, ATP-linked OCR, maximal OCR, and spare capacity, which are key indicators of the mitochondrial function in assays using living cells. Each indicator was calculated by continuously adding ATP synthase inhibitors (oligomycin, rotenone and antimycin A) and deconjugating agents (carbonyl cyanide-p-trifluoromethoxyphenylhydrazone [FCCP]) during the measurement (Fig. 6). […] The OCR was measured over time by adding oligomycin (2 μM concentration) 20 min after drug addition, FCCP (2 μM concentration) 50 min later, and rotenone and antimycin A (0.5 μM concentration) 80 min later.

[2] = test system: GDF-15; experiment: GDF-15 levels in the cell supernatant (ELISA); assay type: cell-based, human; conditions: 24 h after co-administration with RSL3, compared to RSL3-only
Experimental: GDF-15 is a biomarker that is elevated in the blood of patients with mitochondrial diseases and is used for the diagnosis of mitochondrial diseases and determination of therapeutic efficacy[26],[36]. […] As previously reported, GDF-15 levels were measured by an enzyme-linked immuno sorbent assay (ELISA) using the Quantikin Human GDF-15 ELISA Kit (R&D Systems, Minneapolis, MN, USA). Samples were obtained from anti-RSL3-induced cell death assays with candidate compounds (D31, D55, and D40), and cell supernatants 24 h after reagent addition were used for the assay. Measured values were calculated with reference to internal standards and compared to GDF-15 values.

[3] = test system: LS patient-derived skin fibroblasts; conditions: cited from earlier work
[4] = test system: GDF-15; conditions: cited from earlier work
[5] = cited from earlier work
[6] = test system: LS patient-derived skin fibroblasts; experiment: Anti-RSL3-induced cell death activity assay; assay type: cell-based; conditions: Homo sapiens, Skin fibroblast, 24 h, read-out: Anti-RSL3-induced cell death effect EC50
Experimental: RSL3 is a glutathione peroxidase 4 (GPx4) inhibitor that specifically induces ferroptosis. Ferroptosis is an iron-dependent non-apoptotic type of cell death caused by lipid peroxidation.
After 24 h of incubation, the reagents were added to the RSL3 (−) derivative (−) and RSL3 ( +) derivative ( +) groups. […] The final concentration of RSL3 was 50–200 nM that would cause approximately 80–90% cell death after 24 h of incubation. The percentage of viable cells was measured 24 h after addition of each reagent.

[7] = test system: LS patient-derived skin fibroblasts; experiment: Anti-BSO-induced cell death activity assay; conditions: for pEC50: viable cells 48 h after addition

SMILES	Enhancement of mitochondrial ATP production [1]	GDF-15 elevation in cell supernatant [2]	ATP production in LS patient-derived skin fibroblasts [3]	GDF-15 elevation in culture supernatant [4]	Concentrations in the brain versus plasma [5]	pEC50 [6]	Anti-BSO cell death effect retained (same as apomorphine) ([7]; comparison of D29, D30, D31)	pEC50 ([7]; Homo sapiens, Skin fibroblast, 48 h, read-out: Anti-BSO-induced cell death effect EC50, co-added with BSO at a concentration giving 10%-20% cell viability)	pEC50 ([7]; read-out: Anti-BSO-induced cell death effect EC50, co-added with BSO at a concentration giving 10%-20% cell viability)
CN1CCc2cccc3c2[C@H]1Cc1ccc(O)c(O)c1-3 [Apo, (9R)-10-methyl-10-azatetracyclo[7.7.1.0²,⁷.0¹³,¹⁷]heptadeca-1(17),2,4,6,13,15-hexaene-3,4-diol]	No significant enhancement	significant decrease	increase ATP production	inhibits GDF-15 elevation	up to three-fold higher	–	–	–	–
COc1ccc2c(c1O)-c1cccc3c1[C@@H](C2)N(C)CC3 [D31, (9R)-4-methoxy-10-methyl-10-azatetracyclo[7.7.1.0²,⁷.0¹³,¹⁷]heptadeca-1(17),2,4,6,13,15-hexaen-3-ol]	showed any ability to enhance mitochondrial ATP production; also recorded: No significant enhancement	suppressed GDF-15 elevation; also recorded: significant decrease	–	–	–	7.57	retained its anti-BSO cell death effect; also recorded: the only compound with the same anti-BSO-induced cell death activity as apomorphine	–	–
CCCOc1ccc2c(c1O)-c1cccc3c1[C@@H](C2)N(C)CC3 [D40, (9R)-10-methyl-4-propoxy-10-azatetracyclo[7.7.1.0²,⁷.0¹³,¹⁷]heptadeca-1(17),2,4,6,13,15-hexaen-3-ol]	showed any ability to enhance mitochondrial ATP production; also recorded: No significant enhancement	suppressed GDF-15 elevation; also recorded: significant decrease	–	–	–	6.64	–	> 7.00	7.26

Source: article PMC11109252, “Synthetic aporphine alkaloids are potential therapeutics for Leigh syndrome” (Scientific Reports, 2024)
